Reference: ChEMBL document CHEMBL1128987, “Benzenesulfonamide-peptide conjugates as probes for secondary binding sites near the active site of carbonic anhydrase” (Bioorg Med Chem Lett, 1996)

Key:
[1] = target: T1, Carbonic anhydrase 2 (Homo sapiens, UniProt P00918); test: Dissociation constant was determined against human carbonic anhydrase II at 37 degree Centigrade in experiment 2
[2] = target: T1, Carbonic anhydrase 2
Description: Kinetic constant for binding human carbonic anhydrase II

[3] = target: T1, Carbonic anhydrase 2; test: Dissociation constant was determined against human carbonic anhydrase II at 37 degree Celsius in experiment 1

Compound: NS(=O)(=O)c1ccc(C(=O)NCC(=O)O)cc1
- Kd [1]: 330 nM
- k off [2]: 0.12 s⁻¹
- Kd [3]: 310 nM
